Experimental data reported in patent publication US9504702B2, “Methods of inhibition of protein fucosylation in vivo using fucose analogs” (Seattle Genetics, Inc., priority 2010, dated 2016).
Read-outs that look alike come from different tables or passages of the source.

Assays:
[1] = test system: LP-1, a human multiple myeloma cell line (IgG fucosylation); test: Fucosylation of LP-1-generated IgG, AOL dot blot; type: cell-based; conditions: for % of control fucosylated IgG value / inhibition of IgG fucosylation in human cells (decrease in AOL signal, dot blot) / dot blot results (% fucose signal of control): 100 μM; for % of control fucosylated IgG value / activity at 100 µM: 5 days, AOL dot blot, multiple samples separated by semicolon; for % of control fucosylated IgG value / inhibition of IgG fucosylation in human cells (decrease in AOL signal, dot blot) / activity at 100 µM: LP-1 cells; for dot blot results (% fucose signal of control): LP-1-generated IgG; for activity at 100 µM: Homo sapiens, LP-1, 120 h, read-out: % of control fucosylated IgG value
Protocol: To further evaluate the activities of different fucose analogs, 48 different fucose analogs and other four glycosylation inhibitors were tested for their ability to affect the fucosylation the LP-1-generated IgG. LP-1 cells (250,000 cells/mL, 3 mL per compound in 6-well plates) were incubated with 100 μM of each fucose analog for 5 days at 37° C. with a humidified atmosphere of 5% CO2 in IgG-depleted tissue culture media (90% RPMI with 10% IgG-depleted heat inactivated FBS). The IgG was isolated as described above using only 0.5 mL of MabSelect™ protein A resin slurry and one spin cup per sample with elution in 400 μL of IgG elution buffer into 25 μL of 9 M Tris buffer, pH 9. The eluates were concentrated to 10-20 μL per sample and 2 μL of each of the concentrated eluates were dotted onto a nitrocellulose membrane and stained with Ponceau S to estimate and adjust the sample loading for AOL staining. From this estimation of total protein in each sample, approximately 0.5 μg of each sample was dotted onto the membrane, air-dried, and stained with Ponceau S. An image of this stained membrane was captured using an Alpha Innotech FlourChem® Q system. The membrane was then blocked with 5% Bovine Serum Albumin (BSA) in Tris Buffered Saline (TBS) for 1 hr, washed with TBST (TBS with […]) 3 times and then incubated with 5 μg/ml biotinylated-AOL for 1 hr. The membrane was washed again with TBST 3 times, followed by Streptavidin-HRP incubation for 30 min and final washes with TBST 3 times.

[2] = test system: antibody core fucosylation (CHO DG44 cell line producing humanized IgG1 anti-CD70 antibody h1F6); test: Inhibition of antibody core fucosylation in CHO DG44 cell culture producing h1F6; type: cell-based; conditions: day 5, CHO DG44 h1F6; for Inhibition at 50 μM: 50 μM fucose analog; for Inhibition at 1 mM / inhibition at 1000 µM: 1 mM fucose analog
Protocol: Fucose analogs have been evaluated for their effect on antibody core fucosylation at concentrations of 50 μM and 1 mM generally as described in Published US Patent Application 2009-0317869. Briefly, the protocol was as follows: A CHO DG44 cell line producing a humanized IgG1 anti-CD70 monoclonal antibody, h1F6 (see International Patent Publication WO 06/113909) was cultured at 7.5×10^5 cells per mL in 2 mLs of CHO culture media at 37°, 5% CO2 and shaking at 100 RPM in a 6 well tissue culture plate. Media was supplemented with insulin like growth factor (IGF), penicillin, streptomycin and either 1 mM or 50 μM of the fucose analog. On day 5 post inoculation, the culture was centrifuged at 13000 RPM for 5 minutes to pellet the cells; antibodies were then purified from supernatant.
Antibody purification was performed by applying the conditioned media to protein A resin pre-equilibrated with 1× phosphate buffered saline (PBS), pH 7.4. After washing resin with 20 resin bed volumes of 1×PBS, antibodies were eluted with 5 resin bed volumes of Immunopure IgG elution buffer (Pierce Biotechnology, Rockford, Ill.). A 10% volume of 1M Tris pH 8.0 was added to neutralize the eluted fraction.

[3] = 120 h, read-out: Inhibition at 50 μM
[4] = CHO-DG44, 120 h, read-out: Inhibition at 50 μM

1-methyl alkynyl fucose triacetate [SGD-2059]
% of control fucosylated IgG value [1]: 89 % of control
Inhibition at 50 μM [2]: 68%
Inhibition at 1 mM [2]: >80%

5-carboxamido fucose tetraacetate [SGD-1995]
% of control fucosylated IgG value [1]: 79 % of control

5-epoxy fucose tetraacetate [SGD-2020]
% of control fucosylated IgG value [1]: 5 % of control
inhibition of IgG fucosylation in human cells (decrease in AOL signal, dot blot) [1]: potentially strong inhibitors
dot blot results (% fucose signal of control) [1]: 5 % fucose signal of control

6-alkyne-6-acetoxy fucose tetraacetate [SGD-2004]
% of control fucosylated IgG value [1]: 29 % of control

CC(=O)OC1C(C)OC(OC(C)=O)C(F)(F)C1OC(C)=O (stereo not drawn) [2-deoxy-2,2-difluorofucopyranose triacetate (alpha)]
Inhibition at 50 μM [2]: 0%
Inhibition at 1 mM [2]: 64%

CC(=O)OC1C(C)OC(OC(C)=O)C(F)(F)C1OC(C)=O (stereo not drawn) [2-deoxy-2,2-difluorofucopyranose triacetate (beta)]
Inhibition at 50 μM [2]: 0%
Inhibition at 1 mM [2]: 75%

CC(=O)OC(C#N)[C@H]1OC(OC(C)=O)[C@@H](OC(C)=O)[C@@H]1OC(C)=O (some centres unmarked) [5-cyanoarabinofuranose tetraacetate]
Inhibition at 50 μM [2, 3]: 5 to 10%

CC(=O)OC1OC(C#N)[C@@H](OC(C)=O)[C@@H](OC(C)=O)[C@@H]1OC(C)=O (some centres unmarked) [5-cyanoarabinopyranose tetraacetate]
Inhibition at 50 μM [2, 3]: 20%

CC(=O)OC1OC(CCl)[C@@H](OC(C)=O)[C@@H](OC(C)=O)[C@@H]1OC(C)=O (stereo partly drawn) [6-chloro-fucose tetraacetate, (3S,4R,5S)-6-(chloromethyl)tetrahydro-2H-pyran-2,3,4,5-tetrayl tetraacetate]
Inhibition at 50 μM [2, 4]: 20%
inhibition at 1000 µM ([2]; CHO-DG44, 120 h): 20 to 30%

CC(=O)OC1OC(CI)[C@@H](OC(C)=O)[C@@H](OC(C)=O)[C@@H]1OC(C)=O (stereo partly drawn) [6-iodo-fucose tetraacetate, (3S,4R,5S)-6-(iodomethyl)tetrahydro-2H-pyran-2,3,4,5-tetrayl tetraacetate]
Inhibition at 50 μM [2, 4]: 3%
inhibition at 1000 µM ([2]; CHO-DG44, 120 h): 30%

C#CC1OC(OC(=O)C(C)(C)C)C(OC(=O)C(C)(C)C)C(OC(=O)C(C)(C)C)C1O (centres unmarked) [Alkynyl fucose 1,2,3-(trimethylacetate), 5-ethynylarabinose 1,2,3-(trimethylacetate)]
Inhibition at 50 μM [2]: ~0%

C#CC1OC(OC(=O)C(C)(C)C)C(O)C(OC(=O)C(C)(C)C)C1O (centres unmarked) [Alkynyl fucose di(trimethylacetate), 5-ethynylarabinose 1,3-(trimethylacetate)]
Inhibition at 50 μM [2]: >80%

O=C1O[C@H]([C@@H](O)CO)[C@@H](O)[C@@H]1O [SGD-1931, L-galactono-1,4-lactone]
activity at 100 µM [1]: 81%

CO[C@@H]1O[C@@H](C)[C@@H](O)[C@@H](O)[C@@H]1O [SGD-1932, Methyl a-L-fucopyranoside]
% of control fucosylated IgG value [1]: 87 % of control

C#CCNC[C@H](O)[C@@H](O)[C@@H](O)[C@H](O)C=O [SGD-1950, 6-propargylamino fucose]
activity at 100 µM [1]: 40%

CC(=O)OC(CC(=O)O)[C@@H](OC(C)=O)[C@@H](OC(C)=O)[C@@H](C=O)OC(C)=O (some centres unmarked) [SGD-1959, 5-carboxymethyl arabinose tetraacetate]
activity at 100 µM [1]: 94%
Inhibition at 50 μM [2, 3]: 30%
inhibition at 1000 µM ([2]; 120 h): > 80%

O[C@H]1[C@H](O)[C@@H](O)CN2CC[C@H](O)[C@H]12 [SGD-1960, castanospermine, reference compound]
activity at 100 µM [1]: 300%

CC(=O)O[C@@H]([C@@H](C=O)OC(C)=O)[C@H](OC(C)=O)C(C)(C)OC(C)=O [SGD-1964, 5-methylketo fucose tetraacetate]
inhibition of IgG fucosylation in human cells (decrease in AOL signal, dot blot) [1]: potentially strong inhibitors
activity at 100 µM [1]: 5%
dot blot results (% fucose signal of control) [1]: 5 % fucose signal of control

CC(=O)OC1O[C@@H](C(C)C)[C@@H](OC(C)=O)[C@@H](OC(C)=O)[C@@H]1OC(C)=O (stereo partly drawn) [SGD-1977, (3S,4R,5R,6S)-6-isopropyltetrahydro-2H-pyran-2,3,4,5-tetrayl tetraacetate]
activity at 100 µM [1]: 79%

C#C[C@@H]1OC(OC(=O)CC)[C@@H](OC(=O)CC)[C@H](OC(=O)CC)[C@@H]1OC(=O)CC (some centres unmarked) [SGD-2010, 5-ethynylarabinose tetrapropropanoate]
% of control fucosylated IgG value [1]: 1.5 % of control
inhibition of IgG fucosylation in human cells (decrease in AOL signal, dot blot) [1]: potentially strong inhibitors
Inhibition at 50 μM [2]: >80%
Inhibition at 1 mM [2]: >80%

C#CC(OC(=O)CCCCC)[C@@H](OC(=O)CCCCC)[C@@H](OC(=O)CCCCC)[C@@H](C=O)OC(=O)CCCCC (some centres unmarked) [SGD-2012, 5-ethynylarabinose tetrahexanoate]
activity at 100 µM [1]: 67%
Inhibition at 50 μM [2, 4]: > 80%
inhibition at 1000 µM ([2]; CHO-DG44, 120 h): > 80%

O=C[C@H](O)[C@@H](O)[C@@H](O)[C@H](O)CS [SGD-2025, 6-thio galactose pentaacetate]
activity at 100 µM [1]: 44%

COC(=O)[C@@H]1OC(OC(C)=O)[C@@H](OC(C)=O)[C@H](OC(C)=O)[C@@H]1OC(C)=O (some centres unmarked) [SGD-2061, 6-carboxymethyl ester fucose tetraacetate]
% of control fucosylated IgG value [1]: 71 % of control

CCC(=O)[C@H](OC(C)=O)[C@@H](OC(C)=O)[C@@H](OC(C)=O)[C@@H](C=O)OC(C)=O [SGD-2067, 6-keto-6-ethyl fucose tetraacetate]
inhibition of IgG fucosylation in human cells (decrease in AOL signal, dot blot) [1]: potentially strong inhibitors
activity at 100 µM [1]: 3%
dot blot results (% fucose signal of control) [1]: 3 % fucose signal of control

CC(=O)OC(CCC#N)[C@@H](OC(C)=O)[C@@H](OC(C)=O)[C@@H](C=O)OC(C)=O (some centres unmarked) [SGD-2070, 5-(2-cyanoethyl)arabinose tetraacetate]
activity at 100 µM [1]: 51%

CC(=O)OC[C@@H](OC(C)=O)[C@H](OC(C)=O)[C@H](OC(C)=O)[C@H](C=O)OC(C)=O [SGD-2074, D-galactose pentaacetate]
activity at 100 µM [1]: 118%

CC(=O)OC1C=COC(C)C1OC(C)=O (centres unmarked) [SGD-2080, 1,2-dideoxy-1,2-dehydro fucose diacetate]
% of control fucosylated IgG value [1]: 159 % of control

CC(=O)OC1COC(C)C(OC(C)=O)C1OC(C)=O (centres unmarked) [SGD-2081, 1-deoxy fucose triacetate]
% of control fucosylated IgG value [1]: 70 % of control

CC(=O)O[C@@H]1[C@H](OC(C)=O)[C@H](C)OC(F)[C@H]1F (some centres unmarked) [SGD-2082, 1,2-difuloro fucose diacetate]
% of control fucosylated IgG value [1]: 87 % of control
Inhibition at 50 μM [2]: >80%
Inhibition at 1 mM [2]: >80%

CC(=O)OC1CC(OC(C)=O)C(OC(C)=O)C(C)O1 (centres unmarked) [SGD-2108, 6-methyl-tetrahydro-2H-pyran-2,4,5-triyl triacetate]
activity at 100 µM [1]: 104%
Inhibition at 50 μM [2, 4]: 0%

C[C@H](O)[C@@H](O)[C@@H](O)[C@@H](O)C=O [SGD-2113, 6-deoxy-L-talose]
activity at 100 µM [1]: 93%

alkynyl fucose tetra PEG ester [SGD-2057]
% of control fucosylated IgG value [1]: 64 % of control
Inhibition at 50 μM [2]: >80%
Inhibition at 1 mM [2]: >80%

alkynyl fucose tetraisobutanoate [SGD-2043]
% of control fucosylated IgG value [1]: 34 % of control
Inhibition at 50 μM [2]: >80%
Inhibition at 1 mM [2]: >80%

alkynyl fucose tetraisonicotinate [SGD-2058]
% of control fucosylated IgG value [1]: 34 % of control
Inhibition at 50 μM [2]: >80%
Inhibition at 1 mM [2]: >80%
